# Experimental data: patent publication EP0299457A2, “Novel benzothiophenes having antiallergic activity and both novel and other selected benzothiophenes having activity for treating acute respiratory distress syndrome” (WARNER-LAMBERT COMPANY, priority 1987, dated 1989)
# Read-outs that look alike come from different tables or passages of the source.
# What was measured:
# [1] = system: human neutrophils; test: Inhibition of superoxide (O₂⁻) generation from neutrophils; assay type: cell-based; conditions: Neutrophil
# From the text: (§1) The one assay provides IC₅₀'s for the inhibition of superoxide generation. DeChatelet, L. R., Shirley, P. S. and Johnson, R. B. 1976. Effect of phorbol myristate acetate on the oxidative metabolism of human polymorphonuclear leukocytes. Blood 47:545-554. The other assay is a generally recognized in vivo assay to show activity useful for treating ARDS. The in vivo assay is described in J. Clin. Invest., Vol. 69, May 1982, pp 1126-1135.
# The activity for each of these compounds as numbered above is expressed as IC₅₀'s for the inhibition of superoxide generation and is shown in the following Table A: TABLE A
# Further, activity for compounds of examples noted in the following Table A₁ likewise show IC₅₀'s for the inhibition of superoxide generation. TABLE A1
# [2] = system: CVF Induced Lung Injury in Rats; test: Inhibition of cobra venom factor (CVF) induced lung injury in rats (in vivo ARDS assay); conditions: for Lung Injury (x ± SEM): saline control 0.20 ± 0.01, CVF alone 1.45 ± 0.19
# From the text: as §1
# Accordingly, the compounds of the Formula II are now found to be particularly useful for treating ARDS shown by the inhibition of cobra venom factor (CVF) induced lung injury in rats using the Compound No. 1 above in the in vivo assay shown as follows in Table B: TABLE B
# [3] = Table A, read-out: IC₅₀ (µM) Inhibition of O₂⁻ generation from neutrophils
# [4] = given intravenously (20 mg/kg) 10 minutes before intravenous injection of CVF
# [5] = injected intraperitoneally (20 mg/kg) 20 minutes before CVF
# [6] = Table A1, read-out: IC₅₀ (µM) Inhibition of O₂⁻ generation from neutrophils
SMILES,"IC50 [1, 3] [µM]","IC50 [1, 6] [µM]",further results
"COc1ccc2sc(C(=O)Nc3nnn[nH]3)c(OC(C)C)c2c1 [Compound No. 1, 5-Methoxy-3-(1-methylethoxy)-N-1H-tetrazol-5-yl-benzo[b]thiophene-2-carboxamide]",19,,"Protection % Inhibition of Injury [2, 4]: 76%; Lung Injury (x ± SEM) [2, 4]: 0.48 ± 0.08; Protection % Inhibition of Injury [2, 5]: 58%; Lung Injury (x ± SEM) [2, 5]: 0.73 ± 0.06"
"CC(C)Oc1c(C(=O)Nc2nnn[nH]2)sc2ccc(O)cc12 [Example C20A, 3-(1-Methylethoxy)-5-hydroxy-N-1H-tetrazol-5-yl-benzo[b]-thiophene-2-carboxamide]",,48,
"COc1cc2sc(C(=O)Nc3nnn[nH]3)c(OCc3ccccc3)c2cc1OC [Example C21A, 5,6-Dimethoxy-3-(phenylmethoxy)-N-1H-tetrazol-5-yl-benzo[b]thiophene-2-carboxamide]",,40,
"COc1ccc2c(Oc3ccccc3)c(C(=O)Nc3nnn[nH]3)sc2c1 [Example C21D, 6-Methoxy-3-phenoxy-N-1H-tetrazol-5-yl-benzo[b]thiophene-2-carboxamide]",,> 100,
COc1cc2sc(C(=O)Nc3nnn[nH]3)c(Oc3ccccc3)c2cc1OC [Example C21],,6,
"COc1ccc2c(OC(C)C)c(C(=O)Nc3nnn[nH]3)sc2c1 [compound 2, 6-Methoxy-3-(1-methylethoxy)-N-1H-tetrazol-5-yl-benzo[b]thiophene-2-carboxamide]",37,,
"COc1ccc2sc(C(=O)Nc3nnn[nH]3)c(SC(C)C)c2c1 [compound 3, 5-Methoxy-3-[(1-methylethyl)thio-N-1Htetrazol-5-yl]-benzo[b]thiophene-2-carboxamide]",23,,
"COc1ccc2c(OC(C)C)c(C(=O)Nc3nnn[nH]3)oc2c1 [compound 4, 6-Methoxy-3-(1-methylethoxy)-N-1H-tetrazol-5-yl-2-benzofurancarboxamide]",75,,
"COc1ccc2sc(C(=O)Nc3nnn[nH]3)c(OCc3ccccc3)c2c1 [compound 5, 3-Benzyloxy-5-methoxy-N-1H-tetrazol-5-yl-benzo[b]thiophene-2-carboxamide]",23,,
"COc1ccc2sc(C(=O)Nc3nnn[nH]3)c(Oc3ccccc3)c2c1 [compound 6, 5-Methoxy-3-phenoxy-N-1H-tetrazol-5-yl-benzo[b]thiophene-2-carboxamide]",10,,
